These results are taken from publication PMC8359310 (British Journal of Clinical Pharmacology, 2020).

A short description of data set [1]: Clinical DDI study: plasma pharmacokinetics of probe drugs. To be noted: for increase of AUCinf on coadministration of capmatinib / increase of AUClast on coadministration of capmatinib / increase of Cmax on coadministration of capmatinib: compared to probe drug alone; for AUC(0-inf) / AUC(0-t) / Cmax / half-life / Tmax: human, in vivo; for AUC(0-inf): AUCinf; for AUC(0-t): AUClast; for half-life: T1/2, geo‐mean (geo‐CV%); for Tmax: median (min, max); for AUCinf geo‐mean ratio (90% CI) / AUClast geo‐mean ratio (90% CI) / Cmax geo‐mean ratio (90% CI): probe drug + capmatinib vs probe drug alone.

The conditions of data set [2]: cited from earlier work.
[3] abbreviates: adjusted geo‐mean, probe drug + capmatinib, linear mixed effects model.
The mark [4] stands for this setting: adjusted geo‐mean, probe drug alone, linear mixed effects model.
Setting [5] is: geo‐mean (geo‐CV%), probe drug + capmatinib 400 mg twice daily, Day 22, plasma.
Setting [6] is: geo‐mean (geo‐CV%), probe drug alone, Day 1, plasma.
The mark [7] stands for this setting: probe drug + capmatinib 400 mg twice daily, Day 22.

For `C[C@H]1O[C@@H](O[C@H]2[C@@H](O)C[C@H](O[C@H]3[C@@H](O)C[C@H](O[C@H]4CC[C@@]5(C)[C@H](CC[C@@H]6[C@@H]5C[C@@H](O)[C@]5(C)[C@@H](C7=CC(=O)OC7)CC[C@]65O)C4)O[C@@H]3C)O[C@@H]2C)C[C@H](O)[C@@H]1O` [digoxin], in data set [1], the “increase of AUCinf on coadministration of capmatinib” value is listed as 47%, the “increase of AUClast on coadministration of capmatinib” value turned out to be 63% and the “increase of Cmax on coadministration of capmatinib” value is given as 74%. In data set [1] (setting [3]), the AUC(0-inf) was 32.9 ng·h/mL and the AUC(0-t) stood at 23.8 ng·h/mL. Further, in data set [1] (setting [4]), the AUC(0-inf) was found to be 22.4 ng·h/mL, the AUC(0-t) is 14.6 ng·h/mL and the Cmax came out at 1.12 ng/mL. The AUC(0-t) in data set [1] (setting [5]) amounted to 23.8 ng·h/mL. Besides, in data set [1] (setting [6]), the AUC(0-t) is 14.6 ng·h/mL and the Cmax came out at 1.12 ng/mL. In data set [1] (setting [7]), the half-life is 61.4 h. Besides, in data set [1] (probe drug alone, Day 1), the half-life was 47 h and the Tmax amounted to 1.07 h. Also, in data set [2] (healthy subjects with normal renal function), the T1/2 is 36 to 48 h. The “time of peak serum concentrations” value in data set [2] (oral administration) is 1 to 3 h.

With `CC(C)c1nc(N(C)S(C)(=O)=O)nc(-c2ccc(F)cc2)c1/C=C/[C@@H](O)C[C@@H](O)CC(=O)O` [rosuvastatin], in data set [1], the “increase of AUCinf on coadministration of capmatinib” value came to 108%; the “increase of AUClast on coadministration of capmatinib” value was found to be 103%; the “increase of Cmax on coadministration of capmatinib” value came to 204%; the “AUCinf geo‐mean ratio (90% CI)” value is given as 2.08 (1.56, 2.76). In data set [1], the “AUClast geo‐mean ratio (90% CI)” value is listed as 2.03 (1.61, 2.56) and the “Cmax geo‐mean ratio (90% CI)” value was 3.04 (2.36, 3.92). Besides, in data set [1] (setting [3]), the AUC(0-inf) was found to be 156 ng·h/mL, the AUC(0-t) stood at 144 ng·h/mL and the Cmax was 23.5 ng/mL. In data set [1] (setting [4]), this molecule showed an AUC(0-inf) of 75.2 ng·h/mL, an AUC(0-t) of 71 ng·h/mL and a Cmax of 7.72 ng/mL. For the same molecule, in data set [1] (setting [5]), the AUC(0-t) was found to be 144 ng·h/mL and the Cmax turned out to be 23.5 ng/mL. In data set [1] (setting [6]), this molecule returned an AUC(0-t) of 71 ng·h/mL and a Cmax of 7.72 ng/mL. Also, in data set [1] (probe drug alone, Day 1), the half-life was 22 h and the Tmax was 2.04 h. Moreover, the Tmax in data set [1] (setting [7]) is 1.55 h. Moreover, in data set [1] (listed as Rosuvastatin), the “AUCinf geo‐mean ratio (90% CI)” value is listed as 2.08 (1.56–2.76), the “AUClast geo‐mean ratio (90% CI)” value is given as 2.03 (1.61–2.56) and the “Cmax geo‐mean ratio (90% CI)” value was 3.04 (2.36–3.92).

One may read the half-life as the time needed for the level to fall by half in the phase considered. Broadly, the Tmax is the time from dosing to the highest level.
